# ChEMBL document CHEMBL1201862, “PubChem BioAssay data set” (2004)
# Active and inactive are the calls of the source.
# What was measured:
# [1] = viability of PTEN-deleted HCT116 cells – cell-based, HCT116 PTEN knockout, dose response (AID 1047); type: functional;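 also: HCT116 colon tumor cells with PTEN knocked out; cells exposed to compound for 60 hours before readout; potency for loss of cell viability measured by luminescence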
# Streptococcus = assay: GAS UMAA2166 growth inhibition – luminescence, BacTiterGlo, counter-screen for streptokinase expression inhibitor project, dose response (AID 1915); type: functional, organism-based;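 also: potency for reduction of bacterial viability or growth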
# [2] = target: T1, Kappa-type opioid receptor (Homo sapiens, UniProt P41145); assay: kappa opioid receptor blockers, cell-based, luminescence, beta-arrestin, SAR follow-up (AID 2285); type: functional
# T1 sequence (P41145 whole entry): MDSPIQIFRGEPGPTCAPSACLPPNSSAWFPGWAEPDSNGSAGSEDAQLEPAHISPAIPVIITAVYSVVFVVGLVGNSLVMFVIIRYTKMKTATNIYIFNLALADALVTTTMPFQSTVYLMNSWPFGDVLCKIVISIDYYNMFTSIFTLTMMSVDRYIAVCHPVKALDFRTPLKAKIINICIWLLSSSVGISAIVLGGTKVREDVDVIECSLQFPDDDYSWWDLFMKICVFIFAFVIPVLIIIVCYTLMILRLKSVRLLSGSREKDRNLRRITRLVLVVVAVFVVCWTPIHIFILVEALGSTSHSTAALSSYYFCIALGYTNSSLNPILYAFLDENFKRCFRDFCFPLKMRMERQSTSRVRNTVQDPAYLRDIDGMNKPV
# [3] = Luminescence Cell-Based Dose Retest to Confirm Inhibitors of Cancer Stem Cells. [Related pubchem assays (depositor defined):AID2717, AID2721]; type: functional; conditions: Homo sapiens
# [4] = target: T2, Delta-type opioid receptor (Homo sapiens, UniProt P41143); assay: DOR agonists, SAR follow-up, image-based (AID 2370); type: functional
# T2 sequence (P41143 whole entry): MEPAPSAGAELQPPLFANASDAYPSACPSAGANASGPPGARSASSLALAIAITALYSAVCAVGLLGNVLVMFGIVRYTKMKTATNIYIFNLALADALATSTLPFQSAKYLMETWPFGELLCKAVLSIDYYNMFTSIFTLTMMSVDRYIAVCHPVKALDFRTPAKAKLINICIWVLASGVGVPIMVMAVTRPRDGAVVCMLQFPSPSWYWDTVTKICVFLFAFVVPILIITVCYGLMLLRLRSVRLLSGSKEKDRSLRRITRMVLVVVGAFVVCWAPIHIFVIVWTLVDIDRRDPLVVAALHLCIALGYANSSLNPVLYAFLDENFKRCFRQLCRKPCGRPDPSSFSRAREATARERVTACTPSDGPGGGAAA
# [5] = system: Streptococcus sp. 'group A'; assay: Streptococcus pyogenes SK(-)GAS viability under kanamycin – luminescence, BacTiterGlo, confirmation, counter-screen for streptokinase expression inhibitor project, dose response (AID 1900); type: functional, organism-based
# Mu-type opioid receptor [6] = target: T3, Mu-type opioid receptor (Homo sapiens, UniProt P35372); assay: mu opioid receptor activators, image-based, SAR follow-up (AID 2352); type: functional
# T3 sequence (P35372 whole entry): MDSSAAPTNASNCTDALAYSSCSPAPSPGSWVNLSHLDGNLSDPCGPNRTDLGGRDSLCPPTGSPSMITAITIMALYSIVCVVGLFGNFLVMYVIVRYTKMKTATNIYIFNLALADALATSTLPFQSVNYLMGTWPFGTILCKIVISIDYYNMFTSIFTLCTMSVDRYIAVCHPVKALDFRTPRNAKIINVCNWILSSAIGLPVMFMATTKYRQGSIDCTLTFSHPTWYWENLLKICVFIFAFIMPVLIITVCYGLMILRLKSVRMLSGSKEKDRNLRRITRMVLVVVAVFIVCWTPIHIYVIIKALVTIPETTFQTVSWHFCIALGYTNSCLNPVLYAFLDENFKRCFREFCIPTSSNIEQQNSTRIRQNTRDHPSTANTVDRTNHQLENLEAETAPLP
# [7] = target: T1, Kappa-type opioid receptor; assay: kappa opioid receptor blockers, image-based, SAR follow-up (AID 2348); type: functional
# [8] = viability of HCT116 lacking mutant beta-catenin – cell-based, human colon tumor, dose response (AID 1045); type: functional;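 also: HCT116 colon tumor cells with beta catenin knocked out; cells exposed to compound for 60 hours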
# [9] = target: Disintegrin and metalloproteinase domain-containing protein 17 (Homo sapiens, UniProt P78536); assay: inhibition of ADAM17 substrate cleavage – biochemical, quenched FRET substrate, counter-screen for ADAM10 exosite inhibitor project, dose response (AID 743253)
# Sequence of Disintegrin and metalloproteinase domain-containing protein 17 (P78536 whole entry, the tested form may be a part): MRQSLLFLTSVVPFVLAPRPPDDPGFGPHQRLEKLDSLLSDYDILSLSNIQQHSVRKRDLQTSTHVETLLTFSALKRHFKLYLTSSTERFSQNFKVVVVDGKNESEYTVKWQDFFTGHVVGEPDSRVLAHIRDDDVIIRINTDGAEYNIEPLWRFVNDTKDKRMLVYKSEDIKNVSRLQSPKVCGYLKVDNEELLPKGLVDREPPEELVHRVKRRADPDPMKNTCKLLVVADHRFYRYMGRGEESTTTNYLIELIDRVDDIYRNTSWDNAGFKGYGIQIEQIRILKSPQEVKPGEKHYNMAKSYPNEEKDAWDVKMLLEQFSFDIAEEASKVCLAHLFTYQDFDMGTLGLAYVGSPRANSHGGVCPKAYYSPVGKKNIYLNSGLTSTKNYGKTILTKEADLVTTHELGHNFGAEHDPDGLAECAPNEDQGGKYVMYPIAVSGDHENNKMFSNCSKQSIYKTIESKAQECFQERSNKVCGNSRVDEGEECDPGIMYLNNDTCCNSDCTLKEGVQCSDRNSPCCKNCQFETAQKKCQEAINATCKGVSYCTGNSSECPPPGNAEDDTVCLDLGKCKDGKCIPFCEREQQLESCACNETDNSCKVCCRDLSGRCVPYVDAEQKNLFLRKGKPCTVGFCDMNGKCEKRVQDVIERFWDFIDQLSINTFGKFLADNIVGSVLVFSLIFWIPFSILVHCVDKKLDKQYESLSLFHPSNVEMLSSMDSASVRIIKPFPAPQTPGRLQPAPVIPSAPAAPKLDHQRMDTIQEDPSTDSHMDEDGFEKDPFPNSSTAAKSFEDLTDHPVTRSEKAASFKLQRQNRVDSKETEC
# [10] = target: T1, Kappa-type opioid receptor; assay: kappa opioid receptor activation potency – imaging, image-based, SAR follow-up (AID 2359); type: functional
# [11] = target: T4, Tyrosine-protein phosphatase non-receptor type 7 (Homo sapiens, UniProt P35236); assay: SAR analysis of chemical inhibitors of HePTP using a Fluorescent assay - Set 2. [Related pubchem assays (depositor defined):AID1059, AID1077, AID1661, AID2085, AID521]; type: functional
# T4 sequence (P35236 whole entry): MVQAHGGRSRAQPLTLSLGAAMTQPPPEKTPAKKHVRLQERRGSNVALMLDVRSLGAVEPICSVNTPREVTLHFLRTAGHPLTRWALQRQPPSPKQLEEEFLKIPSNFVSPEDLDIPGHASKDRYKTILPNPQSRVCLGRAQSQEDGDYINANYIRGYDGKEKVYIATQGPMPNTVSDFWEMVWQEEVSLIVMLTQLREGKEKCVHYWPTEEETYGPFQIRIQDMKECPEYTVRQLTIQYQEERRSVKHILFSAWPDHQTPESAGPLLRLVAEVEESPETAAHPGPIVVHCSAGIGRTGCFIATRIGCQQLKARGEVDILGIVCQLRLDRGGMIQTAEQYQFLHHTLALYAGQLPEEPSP
# [12] = target: T2, Delta-type opioid receptor; assay: delta opioid receptor blockers – image-based, SAR follow-up (AID 2357); type: functional
# Streptokinase A = target: T5, Streptokinase A (Streptococcus pyogenes serotype M1, UniProt P10520); assay: viability-normalized secreted streptokinase activity reduction – plasminogen activation absorbance, OD405, dose response (AID 1914); type: functional, Streptococcus pyogenes M1 GAS;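 also: secreted streptokinase activity via plasminogen activation per viability signal from cell pellet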
# T5 sequence (P10520 whole entry): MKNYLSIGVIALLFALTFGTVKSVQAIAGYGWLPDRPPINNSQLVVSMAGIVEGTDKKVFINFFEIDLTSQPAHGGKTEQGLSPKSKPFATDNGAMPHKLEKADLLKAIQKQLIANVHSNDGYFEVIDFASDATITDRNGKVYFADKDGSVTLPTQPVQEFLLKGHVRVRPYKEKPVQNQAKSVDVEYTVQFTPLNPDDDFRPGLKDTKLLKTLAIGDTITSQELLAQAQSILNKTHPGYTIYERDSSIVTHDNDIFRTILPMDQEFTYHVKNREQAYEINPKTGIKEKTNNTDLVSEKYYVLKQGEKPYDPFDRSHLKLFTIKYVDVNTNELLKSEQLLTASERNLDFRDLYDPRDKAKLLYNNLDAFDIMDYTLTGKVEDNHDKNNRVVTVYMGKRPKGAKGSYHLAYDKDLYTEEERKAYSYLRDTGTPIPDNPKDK
# [13] = target: Dual specificity protein phosphatase 3 (Homo sapiens, UniProt P51452); assay: SAR VHR1 Fluorescent Assay for In Vitro dose response studies Set 2. [Related pubchem assays (depositor defined):AID1654, AID1661, AID1878]; type: functional
# Mu-type opioid receptor [14] = target: T3, Mu-type opioid receptor; assay: mu opioid receptor blockers – image-based, SAR follow-up (AID 2420); type: functional;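 also: compounds added before stimulation of receptor with agonist DAMGO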
# [15] = potency of ADAM10 substrate cleavage blockers – biochemical, QFRET, dose response (AID 743254);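 also: ADAM10 enzyme with the DM2 quenched FRET peptide as substrate; EDANS fluorescence gain as the protease cuts the substrate; inhibitor potency against ADAM10 proteolytic activity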
# Cannabinoid receptor 2 [16] = target: T6, Cannabinoid receptor 2 (Homo sapiens, UniProt P34972); assay: SAR analysis of antagonists of the Cannabinoid Receptor 2 using an Image-Based Assay - Set 2. [Related pubchem assays (depositor defined):AID1961, AID1965]; type: functional
# T6 sequence (P34972 whole entry): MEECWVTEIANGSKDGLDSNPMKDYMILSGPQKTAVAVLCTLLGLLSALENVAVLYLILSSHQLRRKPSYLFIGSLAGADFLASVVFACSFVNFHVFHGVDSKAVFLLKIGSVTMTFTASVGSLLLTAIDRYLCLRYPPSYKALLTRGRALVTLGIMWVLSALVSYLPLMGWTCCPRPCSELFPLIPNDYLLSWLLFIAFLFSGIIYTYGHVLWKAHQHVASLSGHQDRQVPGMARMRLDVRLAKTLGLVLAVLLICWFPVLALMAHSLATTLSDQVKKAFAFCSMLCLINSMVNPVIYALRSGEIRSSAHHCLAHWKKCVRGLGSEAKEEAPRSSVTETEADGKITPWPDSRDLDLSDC
# [17] = target: T7, G-protein coupled receptor 55 (Homo sapiens, UniProt Q9Y2T6); assay: selective activators of receptor GPR55 – imaging, U2OS cells, beta-arrestin-GFP redistribution, primary screen (AID 1961); type: functional
# T7 sequence (Q9Y2T6 whole entry): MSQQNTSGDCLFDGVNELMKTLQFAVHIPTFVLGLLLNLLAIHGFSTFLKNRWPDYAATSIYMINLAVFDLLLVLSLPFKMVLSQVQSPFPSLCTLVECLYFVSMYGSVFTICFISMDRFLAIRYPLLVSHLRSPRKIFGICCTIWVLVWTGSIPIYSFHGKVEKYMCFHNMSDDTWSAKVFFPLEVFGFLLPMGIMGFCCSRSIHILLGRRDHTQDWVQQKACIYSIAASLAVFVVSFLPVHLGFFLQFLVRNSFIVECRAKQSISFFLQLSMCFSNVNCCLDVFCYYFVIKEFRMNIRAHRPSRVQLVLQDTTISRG
# Cannabinoid receptor 2 [18] = target: T6, Cannabinoid receptor 2; assay: SAR analysis of agonists of the Cannabinoid Receptor 2 using an Image-Based Assay - Set 2. [Related pubchem assays (depositor defined):AID1961, AID1965]; type: functional
# Cannabinoid receptor 1 = Cannabinoid receptor 1 (Homo sapiens, UniProt P21554); assay: SAR analysis of antagonists of the Cannabinoid Receptor 1 using an Image-Based Assay. [Related pubchem assays (depositor defined):AID1961, AID1965]; type: functional
# [19] = target: T7, G-protein coupled receptor 55; assay: SAR analysis of selective Agonists of GPR55 using an Image-Based Assay. [Related pubchem assays (depositor defined):AID1961, AID1965]; type: functional
# SUMO-activating enzyme = SUMO-activating enzyme (Homo sapiens, UniProt Q9UBT2); assay: blockers of UBC9-mediated SUMO conjugation – biochemical, AlphaScreen, SUMOylation inhibitor project, confirmation (AID 2018); type: functional
# Sequence of SUMO-activating enzyme (Q9UBE0 whole entry): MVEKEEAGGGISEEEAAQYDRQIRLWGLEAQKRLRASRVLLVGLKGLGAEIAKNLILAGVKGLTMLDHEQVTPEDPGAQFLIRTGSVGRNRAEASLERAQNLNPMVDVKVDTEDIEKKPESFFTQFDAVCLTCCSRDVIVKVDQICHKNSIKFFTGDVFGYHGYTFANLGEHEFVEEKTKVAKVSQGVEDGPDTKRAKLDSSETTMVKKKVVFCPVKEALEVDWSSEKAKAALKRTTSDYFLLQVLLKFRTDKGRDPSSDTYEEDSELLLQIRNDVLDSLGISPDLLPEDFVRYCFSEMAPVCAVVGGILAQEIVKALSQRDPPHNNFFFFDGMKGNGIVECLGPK
# Sequence of SUMO-activating enzyme (Q9UBT2 whole entry): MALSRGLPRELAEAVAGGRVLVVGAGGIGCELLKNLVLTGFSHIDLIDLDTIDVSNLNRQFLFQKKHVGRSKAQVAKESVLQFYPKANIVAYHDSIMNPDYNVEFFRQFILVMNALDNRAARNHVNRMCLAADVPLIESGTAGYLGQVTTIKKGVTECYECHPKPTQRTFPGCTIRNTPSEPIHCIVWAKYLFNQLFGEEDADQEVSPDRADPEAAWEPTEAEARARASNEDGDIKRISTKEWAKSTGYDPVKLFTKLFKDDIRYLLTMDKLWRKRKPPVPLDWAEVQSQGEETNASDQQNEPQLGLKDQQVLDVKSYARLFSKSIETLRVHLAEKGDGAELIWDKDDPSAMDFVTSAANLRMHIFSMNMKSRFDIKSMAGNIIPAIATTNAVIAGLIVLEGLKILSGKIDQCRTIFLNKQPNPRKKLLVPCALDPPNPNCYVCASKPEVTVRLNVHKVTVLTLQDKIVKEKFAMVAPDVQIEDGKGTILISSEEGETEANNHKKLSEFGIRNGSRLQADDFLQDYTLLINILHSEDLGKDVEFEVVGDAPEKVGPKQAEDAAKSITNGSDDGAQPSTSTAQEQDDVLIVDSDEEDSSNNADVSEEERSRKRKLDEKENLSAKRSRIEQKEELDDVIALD
# [20] = target: Intestinal-type alkaline phosphatase (Mus musculus, UniProt P24822); assay: PubChem AID 488785; type: functional
# Sequence of Intestinal-type alkaline phosphatase (Mus musculus, UniProt P24822) (P24822 whole entry): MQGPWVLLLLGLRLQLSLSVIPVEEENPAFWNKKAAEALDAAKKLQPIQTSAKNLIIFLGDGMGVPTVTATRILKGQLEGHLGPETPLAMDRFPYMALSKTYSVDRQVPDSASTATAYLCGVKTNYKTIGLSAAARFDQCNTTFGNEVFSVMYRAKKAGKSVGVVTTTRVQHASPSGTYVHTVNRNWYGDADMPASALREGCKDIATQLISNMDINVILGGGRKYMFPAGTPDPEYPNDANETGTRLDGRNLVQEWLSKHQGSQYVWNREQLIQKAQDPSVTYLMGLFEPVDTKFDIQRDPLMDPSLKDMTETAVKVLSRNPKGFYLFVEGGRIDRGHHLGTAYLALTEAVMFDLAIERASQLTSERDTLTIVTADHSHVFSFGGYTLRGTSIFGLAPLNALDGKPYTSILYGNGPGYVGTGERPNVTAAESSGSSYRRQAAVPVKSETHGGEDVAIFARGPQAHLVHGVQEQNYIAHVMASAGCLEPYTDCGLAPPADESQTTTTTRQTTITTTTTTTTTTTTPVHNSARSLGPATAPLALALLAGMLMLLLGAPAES
# [21] = target: T8, Alkaline phosphatase, tissue-nonspecific isozyme (Homo sapiens, UniProt P05186); assay: activation of tissue-nonspecific alkaline phosphatase – biochemical, TNAP isozyme, mouse IAP uHTS hits, selectivity assay for mouse IAP activator project, dose response (AID 488880); type: functional
# T8 sequence (P05186 whole entry): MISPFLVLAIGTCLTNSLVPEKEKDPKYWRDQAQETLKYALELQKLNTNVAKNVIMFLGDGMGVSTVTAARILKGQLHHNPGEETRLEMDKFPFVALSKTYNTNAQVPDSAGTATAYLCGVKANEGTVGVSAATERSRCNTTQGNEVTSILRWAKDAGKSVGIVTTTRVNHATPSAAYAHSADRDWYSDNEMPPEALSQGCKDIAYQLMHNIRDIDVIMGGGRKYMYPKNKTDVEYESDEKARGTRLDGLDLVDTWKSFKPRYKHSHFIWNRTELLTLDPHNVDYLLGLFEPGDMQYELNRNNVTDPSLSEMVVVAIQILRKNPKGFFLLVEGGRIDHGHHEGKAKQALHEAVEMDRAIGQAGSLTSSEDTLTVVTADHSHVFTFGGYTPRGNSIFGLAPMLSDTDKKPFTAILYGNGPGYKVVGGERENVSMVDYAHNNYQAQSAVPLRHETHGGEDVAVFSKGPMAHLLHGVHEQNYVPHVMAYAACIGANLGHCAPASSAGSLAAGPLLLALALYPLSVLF
# [22] = target: Intestinal-type alkaline phosphatase (Homo sapiens, UniProt P09923); assay: inhibition of human intestinal alkaline phosphatase – biochemical, dose response (AID 488876); type: functional
# Sequence of Intestinal-type alkaline phosphatase (Homo sapiens, UniProt P09923) (P09923 whole entry): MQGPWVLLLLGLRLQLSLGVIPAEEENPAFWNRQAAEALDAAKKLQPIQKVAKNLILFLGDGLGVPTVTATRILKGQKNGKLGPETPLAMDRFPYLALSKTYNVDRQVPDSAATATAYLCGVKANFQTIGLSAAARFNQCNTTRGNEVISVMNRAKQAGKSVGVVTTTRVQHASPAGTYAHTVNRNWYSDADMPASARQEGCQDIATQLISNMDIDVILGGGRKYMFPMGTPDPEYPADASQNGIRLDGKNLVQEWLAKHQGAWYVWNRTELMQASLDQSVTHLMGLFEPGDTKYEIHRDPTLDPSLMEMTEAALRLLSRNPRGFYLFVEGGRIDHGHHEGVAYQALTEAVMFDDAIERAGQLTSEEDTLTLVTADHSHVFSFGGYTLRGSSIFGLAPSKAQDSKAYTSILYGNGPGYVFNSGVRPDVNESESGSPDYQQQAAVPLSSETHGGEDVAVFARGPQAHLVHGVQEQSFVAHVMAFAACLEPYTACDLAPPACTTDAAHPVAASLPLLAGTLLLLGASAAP
# Tumor necrosis factor = Tumor necrosis factor (Homo sapiens, UniProt P01375); assay: analog potency on TNFa NF-kB signaling – cell-based, revised, SAR follow-up (AID 2337); type: functional
# Sequence of Tumor necrosis factor (P01375 whole entry): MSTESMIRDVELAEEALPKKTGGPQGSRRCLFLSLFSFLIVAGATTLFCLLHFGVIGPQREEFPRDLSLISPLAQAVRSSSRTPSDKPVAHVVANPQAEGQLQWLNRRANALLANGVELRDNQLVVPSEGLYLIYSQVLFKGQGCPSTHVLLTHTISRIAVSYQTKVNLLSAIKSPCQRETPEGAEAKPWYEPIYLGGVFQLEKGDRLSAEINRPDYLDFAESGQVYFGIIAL
# HEK293 = assay: cells; conditions: Homo sapiens;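 also: cells exposed to compound for 14 hours overnight before viability readout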
# Mu-type opioid receptor [23] = target: T3, Mu-type opioid receptor; assay: HTS Image-Based Screen for Agonists of the MOR Receptor. [Related pubchem assays (depositor defined):AID1777, AID1785, AID1786, AID2133]; type: functional
# [24] = target: T2, Delta-type opioid receptor; assay: HTS Image-Based Screen for Antagonists of the DOR Receptor. [Related pubchem assays (depositor defined):AID1777, AID1785, AID1786, AID2133]; type: functional
# [25] = target: T1, Kappa-type opioid receptor; type: functional
# Beta-galactosidase = Beta-galactosidase (Escherichia coli, UniProt Q8VNN2); type: functional
# [26] = target: T1, Kappa-type opioid receptor; type: functional; remark: listed apart in the source
# [27] = target: T2, Delta-type opioid receptor; assay: HTS Image-Based Screen for Agonists of the DOR Receptor. [Related pubchem assays (depositor defined):AID1777, AID1786, AID2133]; type: functional
# 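For AC50 in this document: cells exposed to compound for roughly 70 hours or longer before luminescence read.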
compound,measurement,setting,value
O=C(NC(NC(=S)Nc1cccc(Cl)c1)C(Cl)(Cl)Cl)OCc1ccccc1 (centres undefined),EC50,[1],19.7 µM (active)
same,EC50,Streptococcus,5.92 µM (active)
same,IC50,[2],> 10 µM (inactive)
same,AC50,[3],1.53 µM (active)
same,EC50,[4],> 32 µM (inactive)
same,EC50,[5],3.59 µM (active)
same,EC50,Mu-type opioid receptor [6],> 32 µM (inactive)
same,IC50,[7],12.3 µM (inactive)
same,EC50,[8],19.6 µM (active)
same,IC50,[9],> 69.5 µM (inactive)
same,EC50,[10],> 32 µM (inactive)
same,IC50,[11],87 µM (active)
same,IC50,[12],24.4 µM (inactive)
same,EC50,Streptokinase A,3.92 µM (active)
same,IC50,[13],> 100 µM (inactive)
same,IC50,Mu-type opioid receptor [14],> 32 µM (inactive)
same,IC50,[15],> 7.72 µM (active)
Cc1cccc(N2CCN(C(=O)c3cc(S(=O)(=O)N(C)C)ccc3N3CCCC3)CC2)c1C,IC50,Cannabinoid receptor 2 [16],15.1 µM (inactive)
same,EC50,[17],0.508 µM (active)
same,EC50,Cannabinoid receptor 2 [18],> 32 µM (inactive)
same,IC50,Cannabinoid receptor 1,21.7 µM (inactive)
same,EC50,[19],0.263 µM (active)
CCCCCn1c(N)c(C#N)c2nc3ccccc3nc21,IC50,SUMO-activating enzyme,15.7 µM (active)
N#Cc1cccc(NC(=O)CCNS(=O)(=O)c2ccc3nc(O)oc3c2)c1,IC50,[20],21.7 µM (active)
same,EC50,[21],> 100 µM (inactive)
same,IC50,[22],> 100 µM (inactive)
CC(=O)c1ccc(N2CCN(S(=O)(=O)c3ccc4c(c3)CCN4C(=O)C3CC3)CC2)cc1,IC50,Tumor necrosis factor,16.6 µM (active)
same,IC50,HEK293,> 20 µM (inactive)
Cc1cn(-c2cc(NC(=O)c3ccc(C)c(NC(=O)c4cccc(-c5cnnc(O)c5)c4)c3)cc(C(F)(F)F)c2)cn1,EC50,Mu-type opioid receptor [23],> 32 µM (inactive)
same,IC50,[24],> 32 µM (inactive)
same,IC50,[25],9.01 µM (active)
same,EC50,Beta-galactosidase,> 31.5 µM (inactive)
same,IC50,[26],5.1 µM
same,EC50,[27],> 32 µM (inactive)
